Results on 23 compounds are retold here after patent US10683278B2 (JINAN UNIVERSITY, priority 2015, dated 2020).

The experiment addresses T1, AXL kinase (Homo sapiens, UniProt P30530).
T1 construct: purchased Invitrogen PV4803
T1 sequence (P30530 26-894): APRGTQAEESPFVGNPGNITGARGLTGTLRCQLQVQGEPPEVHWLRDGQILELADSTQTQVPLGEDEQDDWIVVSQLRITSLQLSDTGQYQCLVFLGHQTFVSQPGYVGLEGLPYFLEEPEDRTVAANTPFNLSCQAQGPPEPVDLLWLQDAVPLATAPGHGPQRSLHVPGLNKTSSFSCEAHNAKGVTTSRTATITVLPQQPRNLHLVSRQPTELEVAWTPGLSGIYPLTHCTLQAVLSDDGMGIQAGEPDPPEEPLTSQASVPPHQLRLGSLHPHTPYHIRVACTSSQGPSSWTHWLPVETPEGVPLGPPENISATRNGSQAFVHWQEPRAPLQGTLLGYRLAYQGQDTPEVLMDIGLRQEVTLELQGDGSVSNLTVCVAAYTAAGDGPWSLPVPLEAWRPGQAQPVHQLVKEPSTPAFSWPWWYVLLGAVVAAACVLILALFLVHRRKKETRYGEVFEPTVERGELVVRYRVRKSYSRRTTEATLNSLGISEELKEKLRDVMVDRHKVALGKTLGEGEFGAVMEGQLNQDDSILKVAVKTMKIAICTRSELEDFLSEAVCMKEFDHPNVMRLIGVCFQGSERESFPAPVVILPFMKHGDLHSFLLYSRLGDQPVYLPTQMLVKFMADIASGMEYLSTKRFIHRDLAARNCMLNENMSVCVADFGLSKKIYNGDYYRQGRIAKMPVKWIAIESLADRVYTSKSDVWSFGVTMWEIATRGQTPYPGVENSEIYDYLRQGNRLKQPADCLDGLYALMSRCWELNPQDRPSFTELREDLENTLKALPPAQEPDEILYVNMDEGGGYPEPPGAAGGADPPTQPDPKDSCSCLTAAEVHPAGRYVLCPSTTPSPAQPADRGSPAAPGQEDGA
The experiment in a line: IC50 test on AXL kinase (Z′-LYTE FRET kinase activity detection). The class given is biochemical. The settings on record: Z′-LYTE FRET peptide assay, 1 h reaction. From the text:
Kinase activity detection: The activity of compounds on kinases was detected by a secondary reaction which used the Z′-LYTE™ technique (a detection using fluorescence, enzyme coupling, and based on differences in susceptibility of phosphorylated and non-phosphorylated polypeptides to proteolytic cleavage), followed the fluorescence resonance energy transfer (FRET) principle, and used Z′-LYTE™ FRET peptide substrates (Invitrogen, Z′-LYTE™ KINASE ASSAY KIT—TYR 2 PEPTIDE, PV3191). AXL kinase (invitrogen, PV4803) was diluted stepwise, FRET peptide was then added, followed by ATP, then by compounds at different concentrations, reacted for 1 h, site-specific proteases were then added to recognize and cleave non-phosphorylated FRET peptides, reacted for 1 h, and […] at 445 nm and 520 nm were detected using excitation wavelength of 400 nm.
`COc1cc2ncnc(Oc3ccc(NC(=O)c4c5n(c6cc(N7CCN(Cc8oc(=O)oc8C)CC7)c(F)cc6c4=O)C(C)S5)cc3F)c2cc1OC` (centres unmarked) [GDL5000082, N-(4-((6,7-dimethoxyquinazolin-4-yl)oxy)-3-fluorophenyl)-6-fluoro-1-methyl-7-(4-((5-methyl-2-oxo-1,3-dioxol-4-yl)methyl)piperazin-1-yl)-4-oxo-1,4-dihydro-[1,3]thiazeto[3,2-a]quinoline-3-carboxamide]: the IC50 is 720 nM.
For `C=C(C)c1ccc2c(c1)c(=O)c(C(=O)Nc1ccc(Oc3ncnc4[nH]cc(-c5ccccc5)c34)c(F)c1)c(C)n2C` [TL50167, N-(3-fluoro-4-(5-phenyl-7H-pyrrolo[2,3-d]pyrimidin-4-yloxy)phenyl)-1,2-dimethyl-4-oxo-6-(prop-1-en-2-yl)-1,4-dihydroquinoline-3-carboxamide] the value was 324 nM; for `Cc1c(C(=O)Nc2ccc(Oc3ncnc4[nH]cc(-c5ccccc5)c34)c(F)c2)c(=O)c2cc3ccccc3cc2n1C` [TL50198, N-(3-fluoro-4-((5-phenyl-7H-pyrrolo[2,3-d]pyrimidin-4-yl)oxy)phenyl)-1,2-dimethyl-4-oxo-1,4-dihydrobenzo[g]quinoline-3-carboxamide], > 10000 nM.
`CCc1c(C(=O)Nc2ccc(Oc3ncnc4[nH]cc(-c5ccccc5)c34)c(F)c2)c(=O)c2cc(C)ccc2n1C` [TL4800139, 2-ethyl-N-(3-fluoro-4-(5-phenyl-7H-pyrrolo[2,3-d]pyrimidin-4-yloxy)phenyl)-1,6-dimethyl-4-oxo-1,4-dihydroquinoline-3-carboxamide] returned an IC50 of 78 nM.
With `Cc1c(C(=O)Nc2ccc(Oc3ncnc4[nH]cc(-c5ccccc5)c34)c(F)c2)c(=O)c2ccc(Cl)cc2n1C` [TL50080, 7-chloro-N-(3-fluoro-4-((5-phenyl-7H-pyrrolo[2,3-d]pyrimidin-4-yl)oxy)phenyl)-1,2-dimethyl-4-oxo-1,4-dihydroquinoline-3-carboxamide], the half-inhibitory concentration (IC50) is > 10000 nM.
With `Cc1c(C(=O)Nc2ccc(Oc3ncnc4[nH]cc(-c5ccccc5)c34)c(F)c2)c(=O)c2ccc(C(F)(F)F)cc2n1C` [TL50086, N-(3-fluoro-4-(5-phenyl-7H-pyrrolo[2,3-d]pyrimidin-4-yloxy)phenyl)-1,2-dimethyl-4-oxo-7-(trifluoromethyl)-1,4-dihydroquinoline-3-carboxamide], the half-maximal inhibitory concentration (IC50) is > 10000 nM.
With `CCCc1ccc2c(c1)c(=O)c(C(=O)Nc1ccc(Oc3ncnc4[nH]cc(-c5ccccc5)c34)c(F)c1)c(C)n2C` [TL4800116, N-(3-fluoro-4-((5-phenyl-7H-pyrrolo[2,3-d]pyrimidin-4-yl)oxy)phenyl)-1,2-dimethyl-4-oxo-6-propyl-1,4-dihydroquinoline-3-carboxamide] the figure was 61 nM.
For `CCc1ccc2c(c1)c(=O)c(C(=O)Nc1ccc(Oc3ccnc(N)c3)c(F)c1)c(C)n2C` [GDL5000050, N-(4-(2-aminopyridin-4-yloxy)-3-fluorophenyl)-6-ethyl-1,2-dimethyl-4-oxo-1,4-dihydroquinoline-3-carboxamide] the value was 888 nM; for `CCn1c(C)c(C(=O)Nc2ccc(Oc3ncnc4[nH]cc(-c5ccccc5)c34)c(F)c2)c(=O)c2cc(C)ccc21` [TL4800067, 1-ethyl-N-(3-fluoro-4-(5-phenyl-7H-pyrrolo[2,3-d]pyrimidin-4-yloxy)phenyl)-2,6-dimethyl-4-oxo-1,4-dihydroquinoline-3-carboxamide], 146 nM.
Turning to `Cc1c(C(=O)Nc2ccc(Oc3ncnc4[nH]cc(-c5ccccc5)c34)c(F)c2)c(=O)c2cc(-c3ccccc3)ccc2n1C` [TL50163, N-(3-fluoro-4-(5-phenyl-7H-pyrrolo[2,3-d]pyrimidin-4-yloxy)phenyl)-1,2-dimethyl-4-oxo-6-phenyl-1,4-dihydroquinoline-3-carboxamide], the 50% inhibitory concentration (IC50) is > 10000 nM.
With “6-ethyl-N-(3-fluoro-4-(3-phenylfuro[2,3-b]pyridin-4-yloxy)phenyl)-1,2-dimethyl-4-oxo-1,4-dihydroquinoline-3-carboxamide [GDL5000039]” the figure was 192 nM; with `Cc1c(C(=O)Nc2ccc(Oc3ncnc4[nH]cc(-c5ccccc5)c34)c(F)c2)c(=O)c2cc(-c3cnn(C4CCNCC4)c3)ccc2n1C` [TL50180], > 10000 nM; with `Cc1ccc2c(c1)c(=O)c(C(=O)Nc1ccc(Oc3ncnc4[nH]cc(-c5ccccc5)c34)c(F)c1)c(C)n2C` [TL50115, N-(3-fluoro-4-(5-phenyl-7H-pyrrolo[2,3-d]pyrimidin-4-yloxy)phenyl)-1,2,6-trimethyl-4-oxo-1,4-dihydroquinoline-3-carboxamide], 102 nM.
With `COc1ccc2c(c1)c(=O)c(C(=O)Nc1ccc(Oc3ncnc4[nH]cc(-c5ccccc5)c34)c(F)c1)c(C)n2C` [TL4800005, N-(3-fluoro-4-((5-phenyl-7H-pyrrolo[2,3-d]pyrimidin-4-yl)oxy)phenyl)-6-methoxy-1,2-dimethyl-4-oxo-1,4-dihydroquinoline-3-carboxamide] the figure was 99 nM; with `Cc1c(C(=O)Nc2ccc(Oc3ncnc4[nH]cc(-c5ccccc5)c34)c(F)c2)c(=O)c2cc(Br)ccc2n1C` [TL50133, 6-bromo-N-(3-fluoro-4-((5-phenyl-7H-pyrrolo[2,3-d]pyrimidin-4-yl)oxy)phenyl)-1,2-dimethyl-4-oxo-1,4-dihydroquinoline-3-carboxamide], 3120 nM; with `COc1cc2ncnc(Oc3ccc(NC(=O)c4cn5c6c(c(N7CCN(C)CC7)c(F)cc6c4=O)OC[C@@H]5C)cc3F)c2cc1OC` [GDL5000111, (S)—N-(4-((6,7-dimethoxyquinazolin-4-yl)oxy)-3-fluorophenyl)-9-fluoro-3-methyl-10-(4-methylpiperazin-1-yl)-7-oxo-3,7-dihydro-2H-[1,4]oxazino[2,3,4-ij]quinoline-6-carboxamide], 1080 nM.
On to `Cc1ccc2[nH]c(C)c(C(=O)Nc3ccc(Oc4ncnc5[nH]cc(-c6ccccc6)c45)c(F)c3)c(=O)c2c1` [TL4800025, N-(3-fluoro-4-((5-phenyl-7H-pyrrolo[2,3-d]pyrimidin-4-yl)oxy)phenyl)-2,6-dimethyl-4-oxo-1,4-dihydroquinoline-3-carboxamide], for which inhibition was half-maximal at 557 nM (IC50).
`Cc1c(C(=O)Nc2ccc(Oc3ccnc4[nH]ccc34)c(F)c2)c(=O)c2cc(Cl)ccc2n1C` [TL50090, N-(4-((1H-pyrrolo[2,3-b]pyridin-4-yl)oxy)-3-fluorophenyl)-6-chloro-1,2-dimethyl-4-oxo-1,4-dihydroquinoline-3-carboxamide] yielded a concentration for half-maximal inhibition (IC50) of 2630 nM.
As for `CCc1ccc2c(c1)c(=O)c(C(=O)Nc1ccc(Oc3ccnc(C(N)=O)c3)c(F)c1)c(C)n2C` [GDL5000045, N-(4-(2-carbamoylpyridin-4-yloxy)-3-fluorophenyl)-6-ethyl-1,2-dimethyl-4-oxo-1,4-dihydroquinoline-3-carboxamide], half-maximal inhibition (IC50) was put at 4380 nM.
With `CCN1CCN(c2cc3c(cc2F)c(=O)c(C(=O)Nc2ccc(Oc4ncnc5cc(OC)c(OC)cc45)c(F)c2)cn3C2CC2)CC1` [GDL5000093, 1-cyclopropyl-N-(4-(6,7-dimethoxyquinazolin-4-yloxy)-3-fluorophenyl)-7-(4-ethylpiperazin-1-yl)-6-fluoro-4-oxo-1,4-dihydroquinoline-3-carboxamide] the figure was 277 nM; with `CCCn1c(C)c(C(=O)Nc2ccc(Oc3ncnc4[nH]cc(-c5ccccc5)c34)c(F)c2)c(=O)c2cc(C)ccc21` [TL4800104, N-(3-fluoro-4-(5-phenyl-7H-pyrrolo[2,3-d]pyrimidin-4-yloxy)phenyl)-2,6-dimethyl-4-oxo-1-propyl-1,4-dihydroquinoline-3-carboxamide], 533 nM.
As to `Cc1c(C(=O)Nc2ccc(Oc3ccnc4[nH]cc(-c5ccccc5)c34)c(F)c2)c(=O)c2cc(Cl)ccc2n1C` [TL50128, 6-chloro-N-(3-fluoro-4-((3-phenyl-1H-pyrrolo[2,3-b]pyridin-4-yl)oxy)phenyl)-1,2-dimethyl-4-oxo-1,4-dihydroquinoline-3-carboxamide], the concentration for half-maximal inhibition (IC50) was determined as 211 nM.
For `CCn1cc(C(=O)Nc2ccc(Oc3ncnc4cc(OC)c(OC)cc34)c(F)c2)c(=O)c2cc(F)c(N3CCNCC3)nc21` [GDL5000102, N-(4-((6,7-dimethoxyquinazolin-4-yl)oxy)-3-fluorophenyl)-1-ethyl-6-fluoro-4-oxo-7-(piperazin-1-yl)-1,4-dihydro-1,8-naphthyridine-3-carboxamide] the value was 64 nM.

By IC50 is commonly meant the concentration at which inhibition is half-maximal. Higher therefore signals weaker potency in that assay.
